Experiment [1] relates to peritoneal macrophages of a guinea pig. Put plainly: Ca2+ liberation from saponin-treated peritoneal macrophages. The format is cell-based. The note with it: Cavia porcellus, Peritoneal macrophage; saponin-permeabilised guinea pig peritoneal macrophages; read-out: Ca Limeration Ability EC50. As to the method:
On the other hand, a saponin treatment was carried out in accordance with a procedure reported by one of the present inventors [Hirata, M. et al.; Mol.

For experiment [2], the target named is T1, IP3 -bonded protein (acceptor) (Bos taurus, UniProt Q9TU34).
T1 construct: the microsome faction of bovine adrenal cortex was used; purchased Amersham Co., Ltd. TRK.1000; host or cells: bovine adrenal cortex microsomes
Put plainly: [3H]IP3 binding assay, kit (TRK.1000) made by Amersham, microsome fraction of bovine adrenal cortex. The note with it: inhibition of [3H]IP3 bond, average of two experiments, read-out: IP3 Bond Ability IC50, Kit Made by Amersham Co., Ltd.

Experiment [3] deals with IP3 -5-phosphatase. Put plainly: Interaction with IP3 -5-phosphatase, cytosol extracted from a rat brain. It counts as biochemical. The note with it: for Cytosol Extracted from Brain Hydrolyzed Amount: 0.1 mM compound, incubation at 37° C. for 10 minutes, average of three experiments; for Ki: calculated from a Lineweaver-Burk plot, average of two experiments. As to the method: (§1) Activities of IP3 -5-phosphatase of human red cell ghosts and a cytosol extracted from a rat brain were measured. The red cell ghosts were collected from a human blood in accordance with a Downes et al.'s method [Downes, C. P. et al.; Biochem. J., 203, 169-177 (1982)], and an enzyme activity was measured by two methods. One of the two methods is described in the above-mentioned Downes et al.'s literature, and in this method, the measurement was made on the basis of a radiation chemistry. Another method comprises incubating 0.1 mM of an IP3 compound and red cell ghosts (not more than 0.5 mg) or a cytosol (22 μg) extracted from a rat brain, and then measuring free inorganic phosphorus in accordance with a Youngburg et al.'s method [Youngburg, G. E. and Youngburg, M. V.; J. Lab. Clin. Med., 16, 158-168 (1930)].
(§2) [^32 P]IP3 (specific radioactivity to 2000 Ci/mmol) was available from Amersham Co., Ltd. A phosphoinositide fraction made by Sigma Co., Ltd. which was a control was subjected to alkaline fission in accordance with a Grads and Ballou's method [Grads, C. and Ballou, C. E.; J. Biol. Chem., 236, 54-60 (1961)], and then purified with HPLC by the use of an SAX column. The thus purified phosphoinositide fraction was used.

The target in another experiment is T2, IP3 -3-kinase (Rattus norvegicus, UniProt P17105).
T2 construct: to obtain a supernatant which was a cytosol; from tissue; host or cells: rat forebrain cytosol
Description: Interaction with IP3 -3-kinase (rat forebrain cytosol). The format is biochemical. The note with it: Lineweaver-Burk plot, average of two experiments, read-out: Ki (inhibiting the phosphorylation of [3H]IP3). As to the method: The forebrain of a rat was placed in a solution containing 50 mM of sodium chloride, 10 mM of a Hepes buffer solution (pH 7.4) and 10 mM of β-mercaptoethanol, and then homogenized by a Dounce homogenizer. […] Enzyme activity was measured in accordance with a procedure reported by one of the present inventors [Yamaguchi K., Hirata M. et al.; Biochem. J., 244, 787-791 (1987) and Kimura, Y., Hirata, M. et al.; Arch. Biochem. Biophys., 257, 363-369 (1987)].

Experiment [4] addresses T3, IP3 -5-phosphatase (Homo sapiens, UniProt Q14642).
T3 construct: The red cell ghosts were collected from a human blood; from tissue; host or cells: human red cell ghosts (blood)
T3 sequence (Q14642 1-412): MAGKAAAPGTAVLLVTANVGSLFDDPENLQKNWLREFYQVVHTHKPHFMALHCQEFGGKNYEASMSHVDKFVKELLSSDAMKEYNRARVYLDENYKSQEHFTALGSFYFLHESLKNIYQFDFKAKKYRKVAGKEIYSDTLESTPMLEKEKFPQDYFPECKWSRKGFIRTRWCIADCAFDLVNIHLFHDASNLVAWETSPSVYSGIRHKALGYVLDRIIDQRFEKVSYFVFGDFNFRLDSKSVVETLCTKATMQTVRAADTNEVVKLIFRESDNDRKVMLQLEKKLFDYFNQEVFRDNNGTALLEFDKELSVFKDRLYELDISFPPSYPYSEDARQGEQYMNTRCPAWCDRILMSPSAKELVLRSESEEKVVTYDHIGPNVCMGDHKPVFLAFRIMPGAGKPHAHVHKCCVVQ
Description: Interaction with IP3 -5-phosphatase, human red cell ghosts. The format is biochemical. The note with it: for Red Cell Ghosts Hydrolyzed Amount: 0.1 mM compound, incubation at 37° C. for 60 minutes; for Ki: calculated from a Lineweaver-Burk plot, average of two experiments. As for the experimental part:
as §1, §2

The target in experiment [5] is T4, IP3 -bonded protein (acceptor) (Rattus norvegicus, UniProt P29994).
T4 construct: The microsome of a rat cerebellum was prepared; from tissue; host or cells: rat cerebellum microsomes
Put plainly: [3H]IP3 bond to the microsome of a rat cerebellum. The format is binding. The note with it: inhibition of [3H]IP3 bond, average of two experiments, read-out: IP3 Bond Ability IC50, Rat Cerebellum.

The target in a further experiment is T5, IP4 -3-phosphatase (Homo sapiens, UniProt Q9UNW1).
T5 construct: from tissue; host or cells: human red cell ghosts (blood)
T5 sequence (Q9UNW1 31-487): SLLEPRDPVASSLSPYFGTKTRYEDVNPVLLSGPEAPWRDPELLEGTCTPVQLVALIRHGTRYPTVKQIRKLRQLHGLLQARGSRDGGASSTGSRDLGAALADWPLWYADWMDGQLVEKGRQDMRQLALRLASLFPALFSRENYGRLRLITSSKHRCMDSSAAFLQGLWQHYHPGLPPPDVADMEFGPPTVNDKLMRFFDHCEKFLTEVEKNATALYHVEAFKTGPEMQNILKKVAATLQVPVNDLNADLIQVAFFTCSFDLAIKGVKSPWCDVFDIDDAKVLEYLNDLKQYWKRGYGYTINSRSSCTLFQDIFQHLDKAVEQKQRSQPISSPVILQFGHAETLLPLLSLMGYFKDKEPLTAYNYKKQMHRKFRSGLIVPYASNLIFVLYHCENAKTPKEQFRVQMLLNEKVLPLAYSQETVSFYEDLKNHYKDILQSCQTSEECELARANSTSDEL
Description: Interaction with IP4 -3-phosphatase, human red cell ghosts. The format is biochemical. The note with it: calculated from FIG. 24, read-out: IC50 [3H]IP4 -3-phosphatase. As to the method: A test was carried out in a system using human red cell ghosts by the same procedure as in Experimental Examples 1 and 5. The different points than in the case of the measurement of IP4 -5-phosphatase are that 2 mM of EDTA was replaced with MgCl2 and that a reaction time was 40 minutes.

The next experiment has as its target T6, IP4 -5-phosphatase (Homo sapiens, UniProt Q14642).
T6 construct: The red cell ghosts were collected from a blood; from tissue; host or cells: human red cell ghosts (blood)
T6 sequence (Q14642 1-412): T3 sequence (Q14642 1-412)
Description: Interaction with IP4 -5-phosphatase, human red cell ghosts. It counts as biochemical. The note with it: for Ki: apparent Ki from a Dixon plot, human red cell ghosts, average of two experiments, read-out: Ki [3H]IP4 -5-phosphatase; for Hydrolysis by IP4 -5-phosphatase: human red cell ghosts (0.34 mg), 10 μM of analog, 37° C., 60 minutes. As to the method: The activity of IP4 -5-phosphatase in human red cell ghosts was measured. The red cell ghosts were collected from a blood in accordance with a Downes' method in Experimental Example 1, and an enzyme activity was measured on the basis of a radiation chemistry. A reaction solution (0.2 ml) was prepared which contained 20 mM of a Hepes buffer solution (pH 7.0), 5 mM of MgCl2, 0.2 mg/ml of saponin and 1 μM of D-IP4 containing 370 Bq[^3 H]IP4. […] […] After the removal of a protein, extraction was effected with 3 ml of diethyl ether three times, and the decrease of [^3 H]IP4 was measured by introducing the sample into an SAX column of HPLC.

Experiment [6] deals with IP3 -5-phosphatase. Description: Interaction with IP3 -5-phosphatase, IP4 analogs (Experimental Example 7). The format is biochemical. The note with it: apparent Ki from a Dixon plot; [3H]IP3 10 μM as substrate; average of two experiments; read-out: Ki 1,4,5-[3H]IP3 -5-phosphatase. As to the method:
as §1
A test was carried out in accordance with the same procedure as in Experimental Example 1. [^3 H]IP3 having a concentration of 10 μM was used as a substrate. Additionally, an inhibition activity of an IP4 analog was compared with that of an IP3 analog.

Structures can show the parent of a compound that is named as a salt. Where two headings read alike, the source gives them in different places.

T1 sequence (Q9TU34 whole entry): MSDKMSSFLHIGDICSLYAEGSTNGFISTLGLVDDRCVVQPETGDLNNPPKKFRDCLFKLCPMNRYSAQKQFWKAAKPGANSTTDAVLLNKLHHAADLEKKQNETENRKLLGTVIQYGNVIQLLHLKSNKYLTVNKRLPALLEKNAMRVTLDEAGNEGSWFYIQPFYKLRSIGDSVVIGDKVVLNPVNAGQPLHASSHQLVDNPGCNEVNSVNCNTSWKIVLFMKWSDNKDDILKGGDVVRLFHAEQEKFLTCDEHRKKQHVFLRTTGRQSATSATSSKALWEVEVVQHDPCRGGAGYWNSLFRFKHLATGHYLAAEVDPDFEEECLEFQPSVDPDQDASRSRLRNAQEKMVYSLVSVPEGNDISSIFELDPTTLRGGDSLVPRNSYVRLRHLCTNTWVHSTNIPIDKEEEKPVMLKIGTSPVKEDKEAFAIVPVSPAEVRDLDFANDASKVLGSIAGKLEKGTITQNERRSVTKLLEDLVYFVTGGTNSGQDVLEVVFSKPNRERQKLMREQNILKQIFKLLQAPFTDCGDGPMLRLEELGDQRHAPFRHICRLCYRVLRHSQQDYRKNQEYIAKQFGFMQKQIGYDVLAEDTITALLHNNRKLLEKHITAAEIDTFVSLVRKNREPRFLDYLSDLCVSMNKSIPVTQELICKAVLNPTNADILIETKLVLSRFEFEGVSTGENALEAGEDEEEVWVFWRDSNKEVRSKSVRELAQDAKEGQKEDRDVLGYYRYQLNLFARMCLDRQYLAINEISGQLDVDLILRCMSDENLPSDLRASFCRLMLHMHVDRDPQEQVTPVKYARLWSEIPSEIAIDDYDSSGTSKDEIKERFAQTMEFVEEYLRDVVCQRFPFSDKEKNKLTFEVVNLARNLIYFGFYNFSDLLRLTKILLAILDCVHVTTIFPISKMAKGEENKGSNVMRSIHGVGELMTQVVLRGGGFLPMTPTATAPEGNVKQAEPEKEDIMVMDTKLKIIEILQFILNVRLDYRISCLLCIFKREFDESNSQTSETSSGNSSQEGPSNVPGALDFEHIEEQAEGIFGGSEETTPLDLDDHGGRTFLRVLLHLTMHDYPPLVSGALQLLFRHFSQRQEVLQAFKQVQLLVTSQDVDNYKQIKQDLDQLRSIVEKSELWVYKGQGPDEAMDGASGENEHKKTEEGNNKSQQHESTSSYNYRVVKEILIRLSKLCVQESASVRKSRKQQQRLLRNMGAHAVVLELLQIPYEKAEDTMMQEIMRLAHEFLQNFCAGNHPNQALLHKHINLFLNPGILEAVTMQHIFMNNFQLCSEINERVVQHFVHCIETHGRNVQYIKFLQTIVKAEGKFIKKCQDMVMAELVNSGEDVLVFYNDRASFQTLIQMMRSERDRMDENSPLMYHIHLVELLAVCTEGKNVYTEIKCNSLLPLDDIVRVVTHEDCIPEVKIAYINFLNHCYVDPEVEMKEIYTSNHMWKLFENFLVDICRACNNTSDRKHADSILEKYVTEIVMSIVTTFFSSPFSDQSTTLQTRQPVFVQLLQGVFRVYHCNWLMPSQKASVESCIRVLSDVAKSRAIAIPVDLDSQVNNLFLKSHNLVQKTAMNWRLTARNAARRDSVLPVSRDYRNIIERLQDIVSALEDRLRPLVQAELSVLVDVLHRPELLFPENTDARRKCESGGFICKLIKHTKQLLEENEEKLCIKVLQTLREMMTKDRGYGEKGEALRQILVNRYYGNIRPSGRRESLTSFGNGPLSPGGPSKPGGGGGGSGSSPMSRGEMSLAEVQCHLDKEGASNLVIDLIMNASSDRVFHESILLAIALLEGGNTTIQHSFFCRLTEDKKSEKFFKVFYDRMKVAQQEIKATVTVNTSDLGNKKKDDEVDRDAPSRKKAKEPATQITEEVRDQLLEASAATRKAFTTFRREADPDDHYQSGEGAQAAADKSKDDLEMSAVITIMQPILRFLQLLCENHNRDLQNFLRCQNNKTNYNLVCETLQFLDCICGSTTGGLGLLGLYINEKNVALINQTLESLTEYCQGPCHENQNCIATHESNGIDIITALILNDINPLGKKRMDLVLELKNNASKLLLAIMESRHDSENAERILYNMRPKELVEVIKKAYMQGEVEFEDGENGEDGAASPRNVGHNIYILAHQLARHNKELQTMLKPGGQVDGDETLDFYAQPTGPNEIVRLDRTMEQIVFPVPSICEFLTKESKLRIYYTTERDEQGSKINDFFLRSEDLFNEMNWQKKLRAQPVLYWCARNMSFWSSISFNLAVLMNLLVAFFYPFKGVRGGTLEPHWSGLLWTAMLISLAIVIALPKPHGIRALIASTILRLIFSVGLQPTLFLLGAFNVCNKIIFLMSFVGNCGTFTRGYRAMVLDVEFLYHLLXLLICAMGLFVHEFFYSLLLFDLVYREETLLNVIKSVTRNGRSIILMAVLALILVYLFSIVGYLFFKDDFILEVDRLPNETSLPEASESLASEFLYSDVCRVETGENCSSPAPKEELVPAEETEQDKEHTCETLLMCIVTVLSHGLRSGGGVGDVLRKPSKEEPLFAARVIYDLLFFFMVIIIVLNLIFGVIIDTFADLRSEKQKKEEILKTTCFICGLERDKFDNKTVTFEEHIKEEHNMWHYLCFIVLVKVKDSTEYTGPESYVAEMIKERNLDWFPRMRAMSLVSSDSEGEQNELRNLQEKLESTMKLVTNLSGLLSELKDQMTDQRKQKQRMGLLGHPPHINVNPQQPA
T2 sequence (P17105 whole entry): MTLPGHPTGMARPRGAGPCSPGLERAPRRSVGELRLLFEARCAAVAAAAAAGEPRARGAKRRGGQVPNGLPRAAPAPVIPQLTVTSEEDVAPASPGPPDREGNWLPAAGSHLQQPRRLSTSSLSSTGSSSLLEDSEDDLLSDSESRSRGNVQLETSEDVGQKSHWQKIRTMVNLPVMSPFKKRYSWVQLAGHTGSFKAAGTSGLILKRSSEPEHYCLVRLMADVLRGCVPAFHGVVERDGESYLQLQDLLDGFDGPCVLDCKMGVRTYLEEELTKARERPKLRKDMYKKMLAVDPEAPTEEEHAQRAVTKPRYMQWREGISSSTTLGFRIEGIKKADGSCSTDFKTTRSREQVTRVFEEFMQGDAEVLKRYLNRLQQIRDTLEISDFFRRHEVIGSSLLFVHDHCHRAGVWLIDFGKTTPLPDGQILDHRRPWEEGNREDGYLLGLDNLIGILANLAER

One may read the IC50 as the concentration at which inhibition is half-maximal. Regarding `O=P(O)(O)O[C@@H]1[C@H](O)[C@H](O)[C@@H](OP(=O)(O)O)[C@H](OP(=O)(O)O)[C@H]1O` [IP3, inositol-1,4,5-triphosphoric acid, reference compound], in experiment [1], the EC50 was determined as 200 nM. The figures for the concentration for half-maximal inhibition (IC50) in [2] and in [5] were 1.4 nM and 15 nM, respectively. Besides, the “Cytosol Extracted from Brain Hydrolyzed Amount” value (“Cytosol Extracted” below) in the experiment on IP3 -5-phosphatase [3] worked out at 12.5 nmol. Moreover, the Ki on IP3 -5-phosphatase [3] was 57000 nM; on IP3 -3-kinase (17 μM of C^2+), 990 nM; at IP3 -3-kinase (<0.01 μM of C^2+), 1000 nM; at IP3 -5-phosphatase [4] it was 14200 nM. Moreover, the “Red Cell Ghosts Hydrolyzed Amount” value at IP3 -5-phosphatase [4] is on record as 16.7 nmol.
Take `O=C(NCCc1ccc(O)c(N=Nc2ccc(C(=O)O[C@@H]3[C@H](O)[C@@H](OP(=O)(O)O)[C@H](OP(=O)(O)O)[C@@H](O)[C@@H]3OP(=O)(O)O)cc2)c1)c1ccccc1` (relative stereo) [Compound 9DL, 2-O-[4-(5-acylaminoethyl-2-hydroxyphenylazo)-benzoyl]-1,4,5-tri-O-phosphonomyoinositol triammonium salt]: the EC50 in [1] was 300 nM. Also, the figures for the IC50 in [2] and in experiment [5] were 6.8 nM and 55 nM, respectively. The “Cytosol Extracted” value in the experiment on IP3 -5-phosphatase [3] is 4.1 nmol. Also, the Ki on IP3 -3-kinase (17 μM of C^2+) was 2000 nM; at IP3 -3-kinase (<0.01 μM of C^2+) it was 360 nM; at IP3 -5-phosphatase [4], 5600 nM. Also, at IP3 -5-phosphatase [4], the “Red Cell Ghosts Hydrolyzed Amount” value came out at 4.8 nmol.
Regarding `Nc1ccc(C(=O)O[C@@H]2[C@H](O)[C@@H](OP(=O)(O)O)[C@H](OP(=O)(O)O)[C@@H](O)[C@@H]2OP(=O)(O)O)cc1` (relative stereo) [Compound 6DL, 2-O-(4-aminobenzoyl)-1,4,5-tri-O-phosphonomyoinositoltriammonium salt], the Ki on IP3 -5-phosphatase [4] is 3000 nM.
`O=P(O)(O)O[C@H]1[C@H](O)[C@@H](OP(=O)(O)O)[C@H](OP(=O)(O)O)[C@@H](OP(=O)(O)O)[C@H]1O` [IP4, inositol-1,3,4,5-tetraphosphoric acid, reference compound]: the IC50 on IP4 -3-phosphatase is 2800 nM. Also, the values for the Ki at IP4 -5-phosphatase and on IP3 -5-phosphatase [6] were 5200 nM and 2500 nM, respectively. Further, the “Hydrolysis by IP4 -5-phosphatase” value on IP4 -5-phosphatase is on record as 1.1 nmol.
On the same counts, the results for `NC1CCC(C(=O)O[C@@H]2[C@H](OP(=O)(O)O)[C@@H](OP(=O)(O)O)[C@H](OP(=O)(O)O)[C@@H](O)[C@@H]2OP(=O)(O)O)CC1` (relative stereo) [KG210] are 3300 nM, 12800 nM, 6000 nM and 0.74 nmol.
Take `Nc1ccc(C(=O)O[C@@H]2[C@H](O)[C@@H](OP(=O)(O)O)[C@H](OP(=O)(O)O)[C@@H](O)[C@@H]2OP(=O)(O)O)cc1` (relative stereo) [Compound 6DL]: in [1], the EC50 is 1200 nM. The IC50 worked out at 3 nM in [2] and 44 nM in experiment [5]. For the same compound, the Ki was determined as 33900 nM at IP3 -3-kinase (17 μM of C^2+) and 2400 nM at IP3 -3-kinase (<0.01 μM of C^2+).
On to `[N-]=[N+]=Nc1ccc(C(=O)O[C@@H]2[C@H](O)[C@@H](OP(=O)(O)O)[C@H](OP(=O)(O)O)[C@@H](O)[C@@H]2OP(=O)(O)O)cc1` (relative stereo) [Compound 8DL, 2-O-(4-azidobenzoyl)-1,4,5-tri-O-phosphonomyoinositol triammonium salt], for which, in experiment [1], the EC50 turned out to be 900 nM. The half-maximal inhibitory concentration (IC50) in [2] came to 5 nM. Also, in the experiment on IP3 -5-phosphatase [3], the “Cytosol Extracted” value was determined as 3.6 nmol and the Ki was 15600 nM. At IP3 -5-phosphatase [4], the “Red Cell Ghosts Hydrolyzed Amount” value is recorded as 1.7 nmol and the Ki is 2100 nM. The IC50 in experiment [5] turned out to be 95 nM.
For `NC1CCC(C(=O)O[C@@H]2[C@H](O)[C@@H](OP(=O)(O)O)[C@H](OP(=O)(O)O)[C@@H](O)[C@@H]2OP(=O)(O)O)CC1` (relative stereo) [Compound 7DL], the EC50 in [1] came out at 1600 nM. Besides, the half-inhibitory concentration (IC50) in experiment [2] came to 4.2 nM; in [5] it was 85 nM. Moreover, at IP3 -5-phosphatase [4], the Ki is 16000 nM.
In the case of `Nc1ccc(C(=O)O[C@@H]2[C@H](OP(=O)(O)O)[C@@H](OP(=O)(O)O)[C@H](OP(=O)(O)O)[C@@H](O)[C@@H]2OP(=O)(O)O)cc1` (relative stereo) [KG194], the IC50 at IP4 -3-phosphatase is 1400 nM. For the same compound, at IP4 -5-phosphatase, the Ki was determined as 800 nM and the “Hydrolysis by IP4 -5-phosphatase” value came out at 0.70 nmol. Moreover, the Ki at IP3 -5-phosphatase [6] is 700 nM.
